We go through two compounds from patent US20030065015A1 (priority 2001, published 2003).

The format of data set [1] is physicochemical. The following applies: pH 0.
The conditions of data set [2]: pH=6.
A further data set is described as follows: physchem. The following applies: pH 6.

Several values for one entry are separate records, joined by “and”; a condition that tells them apart may be missing. Equal values may be shown once.

As to `CN(C)C(=O)Oc1ccc[n+](C)c1.[Br-]` [Pyridostigmine Bromide, 3-dimethylaminocarbonyloxy-N-methylpyridinium bromide], the Ko/a in data set [1] is 1.9 × 10^−3 and 2.3 × 10^−2 and 2.0 × 10^−2. Compound `C[n+]1ccccc1/C=N/O` [2-PAM chloride, 2-[(hydroxyimino)methyl]-1-methylpyrdinium chloride] returned a partition coefficient in data set [2] of 0.79. In addition, the logD (commonly lipophilicity at a set pH, counting ionised and neutral species) in “physchem” is -3.12.
